Reference: ChEMBL document CHEMBL6087466, “The Potential of PARP Inhibitors as Antitumor Drugs and the Perspective of Molecular Design” (J Med Chem, 2025)

Columns and labels:
[1] = target: Poly [ADP-ribose] polymerase 1 (Homo sapiens, UniProt P09874); experiment: Inhibition of PARP1 (unknown origin)
SK-OV-3 = experiment: Antiproliferative activity against human SK-OV-3 cells assessed as reduction in cell growth by SRB assay; format: functional, cell-based

Sequence of Poly [ADP-ribose] polymerase 1 (P09874 whole entry): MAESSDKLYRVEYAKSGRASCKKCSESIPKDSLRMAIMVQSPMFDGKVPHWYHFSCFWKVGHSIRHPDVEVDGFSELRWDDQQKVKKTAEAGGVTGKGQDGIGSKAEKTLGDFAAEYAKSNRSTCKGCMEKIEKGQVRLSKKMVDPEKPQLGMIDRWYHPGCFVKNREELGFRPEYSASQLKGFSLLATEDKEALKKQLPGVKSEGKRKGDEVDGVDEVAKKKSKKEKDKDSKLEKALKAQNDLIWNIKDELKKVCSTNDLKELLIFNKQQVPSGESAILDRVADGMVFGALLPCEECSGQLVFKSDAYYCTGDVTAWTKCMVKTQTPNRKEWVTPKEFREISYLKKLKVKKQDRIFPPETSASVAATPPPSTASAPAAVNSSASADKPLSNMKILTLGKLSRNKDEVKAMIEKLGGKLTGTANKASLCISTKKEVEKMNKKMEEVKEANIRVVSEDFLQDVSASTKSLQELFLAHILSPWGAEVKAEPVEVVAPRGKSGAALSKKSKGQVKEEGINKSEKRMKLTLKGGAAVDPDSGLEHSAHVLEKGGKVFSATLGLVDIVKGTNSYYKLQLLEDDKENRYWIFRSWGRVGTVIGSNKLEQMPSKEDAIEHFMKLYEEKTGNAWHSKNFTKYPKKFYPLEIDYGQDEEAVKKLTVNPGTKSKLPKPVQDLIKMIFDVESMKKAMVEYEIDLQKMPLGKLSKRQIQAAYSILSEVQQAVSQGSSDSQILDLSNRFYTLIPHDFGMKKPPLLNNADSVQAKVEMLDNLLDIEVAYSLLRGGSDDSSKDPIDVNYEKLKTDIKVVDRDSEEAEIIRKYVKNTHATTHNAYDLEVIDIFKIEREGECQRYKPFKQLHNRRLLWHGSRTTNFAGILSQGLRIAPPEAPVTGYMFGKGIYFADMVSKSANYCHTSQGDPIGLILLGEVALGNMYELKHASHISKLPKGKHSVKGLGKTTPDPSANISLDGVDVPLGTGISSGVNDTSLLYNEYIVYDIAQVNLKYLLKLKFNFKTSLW

SMILES	IC50 [1] [µM]	IC50 (SK-OV-3) [µM]
N#Cc1ccc(N2CCN([C@H]3C=C(c4cc5ncccc5c(=O)[nH]4)CC3)CC2)cc1	0.001	–
CCNC(=S)N/N=C/c1ccc(-c2nc3c(oc4ccccc43)c(=O)[nH]2)cc1	0.026	4.98
NC(=O)c1cccc2[nH]c(CCCCCCOc3cc(O)c4c(=O)cc(-c5ccccc5)oc4c3)nc12	0.093	–
